# According to US20240158383A1, “RIBONUCLEOTIDE REDUCTASE (RNR) INHIBITORS AND USES THEREOF” (Boundless Bio, Inc., priority 2021, published 2024):
# Tests used:
# RNR (RNR1:RNR2) = RNR (RNR1:RNR2) (Homo sapiens (Human), UniProt P23921+P31350); test: RNR enzyme activity, rapid-fire mass spectrometry (RFMS) assay; assay type: biochemical; conditions: [RNR] 50 nM, 1:1 RNR1:RNR2, [CDP] 5 μM, [ATP] 1 mM, 37° C., 45 min
# Experimental: A rapid-fire mass spectrometry (RFMS) assay was used to assess RNR enzyme activity using a 384 well plate and a robotic platform.
# The plate layout included two validated reference compounds (Triapine (3-AP) and Hydroxyurea (HU)): • A dose response in duplicate; top concentration: 5 μM (3-AP) and 250 μM (HU), semi-log • dilutions. • Spike wells in triplicate randomly spotted at four concentrations: • 250 μM, 100 μM, 30 μM and 2 μM for HU • 5 μM, 2 μM, 0.6 μM and 0.04 μM for 3-AP
# First, the multidrop pipes were saturated for 30 minutes with enzymatic solution. Then 30 μL of Stop solution was distributed in column 24. Next, 15 μL of enzyme was distributed in column 1 to 24. Next, a pre-incubation step of 15 minutes at room temperature occurred, followed by distribution of 15 μL of substrate solution (column 1 to 24). Next, the plate was incubated for 45 minutes at 37° C. 30 μL of Stop solution was distributed to columns 1 to 23.
# The final parameters for the enzyme reactions were: • Incubation: 37° C., 45 min • [CDP]: 5 μM; [ATP]: 1 mM; [NADPH]: No • [RNR]final: 50 nM with 1:1 (RNR1:RNR2) ratio • Final volume: 30 μL • Stop solution: 6% HCOOH containing 2 μM of 15
# The compounds were screened at concentrations from 10 nM to 30 μM.
# [1] = tested on: pCHK1 (S345) in Colo320 DM cells; test: CHK1 cellular activity (phospho-CHK1 AlphaLisa); assay type: cell-based, human; conditions: compound overnight (approximately 16 hours)
# Experimental: Phospho-CHK1 cellular activity was measured as a marker of replication stress which is a consequence of RNR inhibition.
# Colo320 DM cells (ATCC #CCL-220, derived from human colorectal adenocarcinoma, Dukes' type C) were seeded on a 96-well cell culture treated assay plate at a density of 50,000 cells/well in 200 μL of RPMI-1640 media supplemented with 10% Fetal Bovine Serum and incubated at 37 degrees Celsius overnight. The following day, test compound dilutions were added directly to the plated cells by a Tecan digital dispenser to a final DMSO concentration of <0.5% and incubated at 37 degrees Celsius overnight (approximately 16 hours). The following day all culture media is removed from the cells. 75 μL of 1× AlphaLisa lysis buffer is added to each well and plates are agitated on a shaker for 30 minutes at room temperature. The lysis of cells and detection of pCHK1 (S345) are performed with reagents contained within the AlphaLisa Sure Fire assay kit (Perkin Elmer #ALSU-PCHK1-A) according to the manufacturer's instructions. 10 μL of each lysate was then transferred to a white, 384-well assay plate (Perkin Elmer #6008280). 5 μL of Acceptor mix was then added to each well of lysate in the white, 384-well assay plate and incubated in the dark at room temperature for 60 minutes. 5 μL of Donor mix was then added to each well of the white, 384-well assay plate in subdued light and incubated at room temperature for 60 minutes. Plates are read on an Alpha Technology-compatible plate reader using standard AlphaLisa settings.
# RNR (RNR1:RNR2), sequence (P23921 whole entry): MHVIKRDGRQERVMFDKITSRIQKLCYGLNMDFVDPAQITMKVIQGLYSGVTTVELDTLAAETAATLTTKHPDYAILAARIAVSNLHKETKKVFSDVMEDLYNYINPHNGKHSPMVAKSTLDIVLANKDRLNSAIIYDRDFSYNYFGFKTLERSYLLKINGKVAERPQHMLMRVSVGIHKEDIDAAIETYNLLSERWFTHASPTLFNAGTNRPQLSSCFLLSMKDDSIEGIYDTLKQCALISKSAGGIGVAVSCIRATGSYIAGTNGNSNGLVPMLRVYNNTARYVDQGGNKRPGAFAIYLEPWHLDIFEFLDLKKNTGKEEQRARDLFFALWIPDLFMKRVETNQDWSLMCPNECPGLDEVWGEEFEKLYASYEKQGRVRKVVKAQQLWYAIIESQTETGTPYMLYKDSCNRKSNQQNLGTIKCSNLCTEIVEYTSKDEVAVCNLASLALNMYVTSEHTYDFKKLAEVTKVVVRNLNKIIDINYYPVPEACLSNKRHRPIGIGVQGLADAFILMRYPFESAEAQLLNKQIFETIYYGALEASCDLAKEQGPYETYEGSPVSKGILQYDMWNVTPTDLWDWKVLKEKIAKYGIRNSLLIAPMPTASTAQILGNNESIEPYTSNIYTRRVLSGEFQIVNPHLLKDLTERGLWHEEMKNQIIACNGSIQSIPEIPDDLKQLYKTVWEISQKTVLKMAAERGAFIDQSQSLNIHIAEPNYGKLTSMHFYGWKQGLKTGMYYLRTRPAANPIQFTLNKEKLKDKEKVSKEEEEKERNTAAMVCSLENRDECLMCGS
# RNR (RNR1:RNR2), sequence (P31350 whole entry): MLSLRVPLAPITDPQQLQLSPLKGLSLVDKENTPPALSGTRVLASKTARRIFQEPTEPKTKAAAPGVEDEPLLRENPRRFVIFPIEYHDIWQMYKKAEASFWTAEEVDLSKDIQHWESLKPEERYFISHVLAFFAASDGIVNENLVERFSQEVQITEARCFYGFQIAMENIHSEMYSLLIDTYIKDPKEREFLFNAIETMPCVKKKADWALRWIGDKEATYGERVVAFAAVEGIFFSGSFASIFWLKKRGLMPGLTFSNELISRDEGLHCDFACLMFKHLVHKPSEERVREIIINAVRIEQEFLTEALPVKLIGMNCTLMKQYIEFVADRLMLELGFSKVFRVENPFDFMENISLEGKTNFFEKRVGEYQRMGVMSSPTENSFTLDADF
compound,measurement,setting,value
"COc1c(S(=O)(=O)N[C@H](c2nn[nH]n2)[C@H](C)c2c(F)ccc(C)c2C)ccc(Cl)c1[C@H](C)O (racemic) [Example 16, rac-4-chloro-N-((1R,2S)-2-(6-fluoro-2,3-dimethyphenyl)-1-(2H-tetrazol-5-yl)propyl)-3-((R)-1-hydroxyethyl)-2-methoxybenzenesulfonamide]",IC50,RNR (RNR1:RNR2),≤ 0.1 µM
same,IC50,"[1]; Homo sapiens, COLO 320DM, 16 h",10 to 30 µM
"COc1c(S(=O)(=O)N[C@H](c2nn[nH]n2)[C@H](C)c2c(F)ccc(C)c2C)ccc(Cl)c1[C@@H](C)O (racemic) [Example 17, rac-4-chloro-N-((1R,2S)-2-(6-fluoro-2,3-dimethylphenyl)-1-(2H-tetrazol-5-yl)propyl)-3-((S)-1-hydroxyethyl)-2-methoxybenzenesulfonamide]",IC50,RNR (RNR1:RNR2),≤ 0.1 µM
same,IC50,"[1]; Homo sapiens, COLO 320DM, 16 h",10 to 30 µM
"Cc1ccc(F)c([C@@H](C)[C@H](NS(=O)(=O)c2ccc(C#N)cc2OC(F)F)c2nn[nH]n2)c1C (racemic) [Example 69, rac-4-cyano-2-(difluoromethxoy)-N-((1R,2S)-2-(6-fluoro-2,3-dimethylphenyl)-1-(2H-tetrazol-5-yl)propyl)benzenesulfonamide]",IC50,RNR (RNR1:RNR2),0.1 to 1 µM
same,IC50,"[1]; Homo sapiens, COLO 320DM, 16 h",50 to 100 µM
"COc1c(S(=O)(=O)N[C@H](c2nn[nH]n2)[C@H](C)c2c(F)ccc(C)c2C)ccc(C#N)c1F (racemic) [Example 70, rac-4-cyano-3-fluoro-N-((1R,2S)-2-(6-fluoro-2,3-dimethylphenyl)-1-(2H-tetrazol-5-yl)propyl)-2-methoxybenzenesulfonamide]",IC50,RNR (RNR1:RNR2),0.1 to 1 µM
same,IC50,"[1]; Homo sapiens, COLO 320DM, 16 h",50 to 100 µM
"Cc1ccc(F)c([C@@H](C)[C@H](NS(=O)(=O)c2ccc(Cl)cc2N(C)C)c2nn[nH]n2)c1C (racemic) [Example 71, rac-4-chloro-2-(dimethylamino)-N-((1R,2S)-2-(6-fluoro-2,3-dimethylphenyl)-1-(2H-tetrazol-5-yl)propyl)benzenesulfonamide]",IC50,RNR (RNR1:RNR2),≤ 0.1 µM
same,IC50,"[1]; Homo sapiens, COLO 320DM, 16 h",≤ 10 µM
"Cc1ccc(F)c([C@@H](C)[C@H](NS(=O)(=O)c2ccc(Cl)c3c2OCC[C@]3(C)O)c2nn[nH]n2)c1C (single isomer, unassigned) [Example 3]",IC50,RNR (RNR1:RNR2),≤ 0.1 µM
same,IC50,"[1]; Homo sapiens, COLO 320DM, 16 h",10 to 30 µM
"Cc1ccc(F)c([C@@H](C)[C@H](NS(=O)(=O)c2ccc(Cl)c3c2OCC[C@@]3(C)O)c2nn[nH]n2)c1C (single isomer, unassigned) [Example 4]",IC50,RNR (RNR1:RNR2),≤ 0.1 µM
same,IC50,[1],10 to 30 µM
"COc1cc(Cl)ccc1S(=O)(=O)N[C@H](c1nn[nH]n1)[C@H](C)c1c(F)ccc(C)c1C [Example 1, 4-chloro-N-[(1S,2R)-2-(6-fluoro-2,3-dimethylphenyl)-1-(2H-1,2,3,4-tetrazol-5-yl)propyl]-2-methoxybenzene-1-sulfonamide]",IC50,RNR (RNR1:RNR2),≤ 0.1 µM
same,IC50,"[1]; Homo sapiens, COLO 320DM, 16 h",≤ 10 µM
"Cc1ccc(F)c([C@@H](C)[C@H](NS(=O)(=O)c2ccc(Cl)cc2C(N)=O)c2nn[nH]n2)c1C [Example 2, 5-chloro-2-(N-((1S,2R)-2-(6-fluoro-2,3-dimethylphenyl)-1-(2H-tetrazol-5-yl)propyl)sulfamoyl)benzamide]",IC50,RNR (RNR1:RNR2),≤ 0.1 µM
same,IC50,"[1]; Homo sapiens, COLO 320DM, 16 h",50 to 100 µM
"Cc1ccc(F)c([C@@H](C)[C@H](NS(=O)(=O)c2ccc(Cl)cc2C#N)c2nn[nH]n2)c1C [Example 5, 4-chloro-2-cyano-N-((1S2R)-2-(6-fluoro-2,3-dimethylphenyl)-1-(2H-tetrazol-5-yl)propyl)benzenesulfonamide]",IC50,RNR (RNR1:RNR2),0.1 to 1 µM
same,IC50,"[1]; Homo sapiens, COLO 320DM, 16 h",50 to 100 µM
"Cc1ccc(F)c([C@@H](C)[C@H](NS(=O)(=O)c2ccc(Cl)c3c2OCC[C@@]3(C)O)c2nn[nH]n2)c1C [Example 7, 5-((1S,2R)-1-(((R)-5-chloro-4-hydroxy-4-methylchromane)-8-sulfonamido)-2-(6-fluoro-2,3-dimethylphenyl)propyl)tetrazol-2-ide]",IC50,RNR (RNR1:RNR2),≤ 0.1 µM
same,IC50,[1],30 to 50 µM
"Cc1ccc(F)c([C@@H](C)[C@H](NS(=O)(=O)C2CCCCC2)c2nn[nH]n2)c1C [Example 8, N-((1S,4S)-2-(6-fluoro-2,3-dimethylphenyl)-1-(2H-tetraozl-5-yl)propyl)cyclohexanesulfonamide]",IC50,RNR (RNR1:RNR2),1 to 5 µM
same,IC50,"[1]; Homo sapiens, COLO 320DM, 16 h",50 to 100 µM
